The values below are quoted from earlier work in patent publication US20050276865A1, “Peroxide compounds for the prevention and treatment of sexual dysfunction in humans” (priority 2004, published 2005).

Assay in data set [1]: not given
The source holds these as a separate data set.

For another data set, the system named is men with ED. The note with it: injection into the corpus cavernosum (Montorsi et al. 1997).

Consider `NC(N)=O.OO` [Carbamide peroxide, carbamide peroxide], for which the Irritancy as reported result (NTF Chemical Repository) is “irritant”. In addition, the “Toxicity and carcinogenicity concerns” value (according to many studies (Haywood et al. 1991)) is “unfounded”. Moreover, the Solubility in water result in data set [1] was “water-soluble”. For the same compound, in data set [1] (aqueous medium), the “Stability in aqueous medium” value is on record as “highly unstable”.

Regarding `CCCCC[C@H](O)/C=C/[C@H]1[C@H](O)CC(=O)[C@@H]1CCCCCCC(=O)O` [prostaglandin E1], the “Men who achieved improved spontaneous erections and required less frequent injections” value in the data set on men with ED was 28%.
